From article PMC12310481, “Sequence, characterization and pharmacological analyses of the adipokinetic hormone receptor in the stick insect, Carausius morosus” (Frontiers in Endocrinology, 2025)
Values joined by “and” are separate entries in the source; they are usually repeats but may differ in a detail not shown here. Identical values can stand only once. Non-standard residues stand in square brackets, D forms with d. Residues, ends and D or L forms follow the SMILES beside them. pGlu = O=C1CC[C@@H](C(=O)O)N1

Key:
[1] = test system: endogenously expressed purinoceptors; assay: ATP positive control in the bioluminescence assay; assay type: cell-based, Chinese hamster; details: 50 μM ATP
Description: Synthetic peptide stocks of naturally-occurring AKH-related peptides [corazonin, adipokinetic hormone corazonin-like peptide (ACP)], alanine-substituted analogs of Carmo-HrTH-II, natural C. morosus AKH peptides, and several AKHs from other arthropod species in synthetic form were used for preparation of serial dilutions all of which were prepared in assay media (DMEM-F12 media containing 0.1% bovine serum albumin, 1X antimycotic-antibiotic) and loaded in triplicate or quadruplicate into 96-well white luminescence plates (Greiner Bio-One, Germany). Cells stably expressing Carmo-AKHR and transiently expressing aequorin were loaded with an automated injector unit into each individual well containing different test compounds at various concentrations, including assay media alone (negative control wells) and 50 μM ATP (positive control wells) acting on endogenously expressed purinoceptors ([34], [35]). Immediately after injection of the cells into each well, luminescence was measured for 20 s using a Synergy 2 Multi-Mode Microplate Reader (BioTek, Winooski, VT, USA). […] Data were analyzed using a one-way or two-way ANOVA and Tukey’s multiple comparisons post-hoc test, with differences between treatments considered significant if p<0.05.

[2] = test system: Carausius morosus AKH receptor (Carmo-AKHR); assay type: cell-based; details: transient Carmo-AKHR, co-expressing murine promiscuous G protein
[3] = test system: Carausius morosus AKH receptor (Carmo-AKHR); assay: Calcium bioluminescence (aequorin) reporter assay, CHO-K1 cells stably expressing Carmo-AKHR; assay type: cell-based; details: for EC50: CHO-K1 stably expressing Carmo-AKHR, transiently aequorin, luminescence measured 20 s, from dose-response activation curves, 3 to 4 independent biological replicates, normalized to ATP maximum, read-out: EC50 value; for Fold-reduction in activity (receptor activation relative to Carmo-HrTH-II): ratio of EC50 relative to Carmo-HrTH-II
Description: Functional activation of Carmo-AKHR was carried out by following mammalian cell culture procedures as previously described ([20], [29]) with the following modifications. […] At 24 h post-transfection, cells were selected in DMEM:F12 media containing 10% heat-inactivated fetal bovine serum (Wisent, St. Bruno, QC), 1x antimycotic-antibiotic and 600 μg/mL geneticin (G418) until clonal recombinant cells were evident in transfected cells while no live cells were present in non-transfected CHO-K1 cells (control). Individual clonal recombinant colonies were seeded into separate wells of a 96 well cell-culture dish (Sarstedt Inc., Montreal, QC) and grown to confluence while maintaining geneticin selection. To identify clonal recombinant lines with optimal Carmo-AKHR activity yielding the greatest signal-to-noise ratio, individual clonal recombinant lines were assayed in the bioluminescence reporter assay as described previously ([30]). […] The recombinant cell line showing the optimal luminescent response with greatest signal-to-noise ratio was expanded for preparation of cryo-stocks and subsequent detailed investigation of receptor specificity. […] Bruno, QC), 250 μg/mL Geneticin (MilliporeSigma Canada Ltd., Oakville, ON) and 1X antimycotic-antibiotic (ThermoFisher Scientific, Whitby, ON). […] Transfection was completed with PolyJetTM DNA In Vitro Transfection Reagent (FroggaBio, Toronto, ON) following manufacturer recommendations for transfection of adherent cells. At 48 hours post-transfection, cells were detached from culture flasks using Dulbecco's PBS (Wisent, St. Bruno, QC) containing 5 mM Ethylenediaminetetraacetic acid (EDTA) and were prepared for the functional assay as previously described ([30]). […] Immediately after injection of the cells into each well, luminescence was measured for 20 s using a Synergy 2 Multi-Mode Microplate Reader (BioTek, Winooski, VT, USA). […] Data were analyzed using a one-way or two-way ANOVA and Tukey's multiple comparisons post-hoc test, with differences between treatments considered significant if p<0.05.

Carausius morosus = details: in vivo bioassay, stick insect; cited from earlier work
From the text: C. morusus produces decapeptide AKHs that function optimally via the Carmo-AKHR. Two shorter bioanalogs with high identity to Carmo-HrTH were available for testing in the receptor activation assay: Triin-AKH, an amidated nonapeptide that ends in Gly^9 and the amidated octapeptide, Peram-CAH-II that ends in Trp^8. These peptides produced receptor activation curves with EC50 values similar to those of the endogenous AKH peptides ( Table 2 ). Taken on its own, this may indicate that the C-terminal amino acids of Carmo-HrTH (thus Thr^10 and Gly^9) are not critical for activation of Carmo-AKHR, and ... || Replacing the aromatic amino acids, Phe^4 or Trp^8 that are iconic for most natural members of the AKH family, with a nonpolar amino acid like Ala, completely abolished receptor activation in the current in vitro study. Earlier in vivo investigations on L. migratoria ([58]), as well as AKH/RPCH ligand-receptor model studies on S. gregaria and D. pulex made it clear that these two aromatic residues are critical for receptor binding ([55], [56]). […] Clearly, this position in the AKH ligand appear ...

**Q.** Which Maximal luminescent response [1] does the source give for `Nc1ncnc2c1ncn2[C@@H]1O[C@H](COP(=O)(O)OP(=O)(O)OP(=O)(O)O)[C@@H](O)[C@H]1O` [ATP] here?
**A.** about 12 000

**Q.** With `CC(C)C[C@H](NC(=O)[C@@H]1CCC(=O)N1)C(=O)N[C@H](C(=O)N[C@@H](Cc1ccccc1)C(=O)N[C@H](C(=O)N1CCC[C@H]1C(=O)N[C@@H](CO)C(=O)N[C@@H](Cc1c[nH]c2ccccc12)C(N)=O)[C@@H](C)O)[C@@H](C)O` [Aedae-AKH] ([pGlu]LTFTPSW-NH2) as the compound, how does the “Luminescence relative to assay media (BSA) alone” value [2] read?
**A.** ~ 3 fold

**Q.** And the EC50 [3]?
**A.** 1.03 µM

**Q.** What about the “Fold-reduction in activity (receptor activation relative to Carmo-HrTH-II)” value [3] of the same compound?
**A.** 14 fold and 14.00 fold

**Q.** With `CC(C)C[C@H](NC(=O)[C@@H]1CCC(=O)N1)C(=O)N[C@@H](CC(N)=O)C(=O)N[C@@H](Cc1ccccc1)C(=O)N[C@H](C(=O)N1CCC[C@H]1C(=O)N[C@@H](CC(N)=O)C(=O)N[C@@H](Cc1c[nH]c2ccccc12)C(=O)NCC(=O)N[C@H](C(N)=O)[C@@H](C)O)[C@@H](C)O` [Locmi-AKH-I] ([pGlu]LNFTPNWGT-NH2) as the compound, how does the “Hypertrehalosemic effect in vivo (in words)” value (“Hypertrehalosemic effect” for short) (Carausius morosus) read?
**A.** biological function is impaired

**Q.** And the EC50 [3]?
**A.** 4.14 µM

**Q.** For `CC(C)C[C@H](NC(=O)[C@@H]1CCC(=O)N1)C(=O)N[C@H](C(=O)N[C@@H](Cc1ccccc1)C(=O)N[C@H](C(=O)N1CCC[C@H]1C(=O)N[C@@H](CC(N)=O)C(=O)N[C@@H](Cc1c[nH]c2ccccc12)C(N)=O)[C@@H](C)O)[C@@H](C)O` [Peram-CAH-II] ([pGlu]LTFTPNW-NH2), which “Hypertrehalosemic effect” value (Carausius morosus) is on record?
**A.** only about a third of what the native decapeptide achieved

**Q.** And the EC50 [3]?
**A.** 0.388 µM

**Q.** And the “Fold-reduction in activity (receptor activation relative to Carmo-HrTH-II)” value [3]?
**A.** 5 fold and 5.28 fold

**Q.** Which results are given for `CC(C)C[C@H](NC(=O)[C@@H]1CCC(=O)N1)C(=O)N[C@H](C(=O)N[C@@H](Cc1ccccc1)C(=O)N[C@H](C(=O)N1CCC[C@H]1C(=O)N[C@@H](CC(N)=O)C(=O)N[C@@H](Cc1c[nH]c2ccccc12)C(=O)NCC(=O)N[C@@H](CO)C(N)=O)[C@@H](C)O)[C@@H](C)O` [Phyle-CC] ([pGlu]LTFTPNWGS-NH2)?
**A.** Hypertrehalosemic effect in vivo (in words) (Carausius morosus): not at all (in vivo) affected; EC50 [3]: 0.018 µM; Fold-reduction in activity (receptor activation relative to Carmo-HrTH-II) [3]: 0.24 fold

**Q.** With `CC(C)C[C@H](NC(=O)[C@@H]1CCC(=O)N1)C(=O)N[C@@H](CC(N)=O)C(=O)N[C@@H](Cc1ccccc1)C(=O)N[C@H](C(=O)N1CCC[C@H]1C(=O)N[C@@H](CC(N)=O)C(=O)N[C@@H](Cc1c[nH]c2ccccc12)C(=O)NCC(=O)N[C@@H](CO)C(N)=O)[C@@H](C)O` [Phymo-AKH] ([pGlu]LNFTPNWGS-NH2) as the compound, how does the “Hypertrehalosemic effect” value (Carausius morosus) read?
**A.** absence of function in vivo

**Q.** And the EC50 [3]?
**A.** 5.05 µM

**Q.** And the “Fold-reduction in activity (receptor activation relative to Carmo-HrTH-II)” value [3]?
**A.** 68.66 fold
